From ChEMBL document CHEMBL1201862, “PubChem BioAssay data set” (2004) come the findings set out here.

Broadly, the GI50 is the concentration giving 50% growth inhibition.

Each structure is given as a SMILES string.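 Exposure lasted 48 hours, with cells grown in 96-well plates and compounds tested at five concentrations. GI50 marks 50% less growth.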 Active and inactive are the calls of the source. Rule as the data show it: active = GI50 up to about 1.1 µM and inactive = higher.

Test systems include Hs-578T; NCI-H460; HCC 2998; UO-31; NCI-H522; SW-620; 786-0; OVCAR-8; OVCAR-4; HL-60; PC-3; UACC-62; BT-549; TK-10; U-251; ACHN; EKVX; SK-MEL-5; T47D; SNB-75.
Common to all, as to assay: DTP human tumour cell line panel, 48 h

Turning to `CN1c2ccccc2S(=O)(=O)n2c(COc3ccc(Cl)cc3)nnc21`, the GI50 was 43.4 µM (inactive) with Hs-578T; > 100 µM (inactive) with NCI-H460; > 100 µM (inactive) with HCC 2998; > 100 µM (inactive) with UO-31; 31.3 µM (inactive) in the test on NCI-H522; > 100 µM (inactive) in the test on SW-620. The GI50 with 786-0 was 41.5 µM (inactive); with OVCAR-8 it was > 100 µM (inactive); in the test on OVCAR-4 it was 59.3 µM (inactive); with HL-60, 91 µM (inactive); in the test with PC-3, > 100 µM (inactive); with UACC-62, 56.2 µM (inactive). Besides, the GI50 in the test with BT-549 is 50.6 µM (inactive); with TK-10 it was > 100 µM (inactive); with U-251 it was 44 µM (inactive); in the test with ACHN it was > 100 µM (inactive); with EKVX, > 100 µM (inactive); with SK-MEL-5, > 100 µM (inactive). Moreover, the GI50 in the test with T47D is > 100 µM (inactive).
Consider `Cc1ccc(C2(c3ccc(C)cc3)SC(=C(C#N)C#N)c3ccccc32)cc1`, for which the GI50 is > 100 µM (inactive) in the test with Hs-578T; > 100 µM (inactive) with NCI-H460; 89.7 µM (inactive) with HCC 2998; > 100 µM (inactive) in the test with UO-31; 6.75 µM (inactive) in the test with SW-620; > 100 µM (inactive) in the test on 786-0. For the same compound, the GI50 in the test with OVCAR-8 is > 100 µM (inactive); with HL-60 it was 26.3 µM (inactive); with PC-3, 83.9 µM (inactive); in the test with UACC-62 it was 53 µM (inactive); with BT-549, > 100 µM (inactive); with TK-10, > 100 µM (inactive). In addition, the GI50 in the test with U-251 is 18.1 µM (inactive); in the test with ACHN it was > 100 µM (inactive); in the test on EKVX it was > 100 µM (inactive); with SK-MEL-5 it was > 100 µM (inactive); in the test on T47D, > 100 µM (inactive).
As for `C[n+]1c2ccccc2c(C(=O)NC(CCCNC(=N)N)C(=O)O)c2ccccc21` (centres undefined), the GI50 in the test with Hs-578T, in the test with NCI-H460, in the test with SNB-75, in the test on HCC 2998, in the test with UO-31 and in the test with SW-620 was > 100 µM (inactive) in each case. Moreover, the GI50 in the test on 786-0, in the test on OVCAR-8, in the test with OVCAR-4, in the test with PC-3, with UACC-62 and in the test on BT-549 was > 100 µM (inactive) in each case. Moreover, the GI50 in the test with TK-10, in the test on U-251, in the test with ACHN, in the test on EKVX, in the test with SK-MEL-5 and with T47D was > 100 µM (inactive) in each case.
In the case of `O=c1c2c3c(sc2nc(S)n1-c1ccccc1)CCCc1ccc([N+](=O)[O-])cc1-3`, the GI50 is 87.3 µM (inactive) in the test on Hs-578T; 36 µM (inactive) in the test on NCI-H460; 24.6 µM (inactive) with HCC 2998; 26.9 µM (inactive) in the test with UO-31; 13.9 µM (inactive) in the test with NCI-H522; 10.4 µM (inactive) in the test on SW-620. Besides, the GI50 was 54 µM (inactive) in the test with 786-0; 28.8 µM (inactive) with OVCAR-8; 38.9 µM (inactive) with OVCAR-4; 17.6 µM (inactive) with HL-60; 59.7 µM (inactive) with PC-3; 26.7 µM (inactive) with UACC-62. Further, the GI50 in the test with BT-549 was 24.8 µM (inactive); in the test on TK-10 it was > 100 µM (inactive); with U-251, 39.8 µM (inactive); in the test on ACHN, 81.3 µM (inactive); with EKVX, > 100 µM (inactive); with SK-MEL-5, 25.7 µM (inactive). For the same compound, the GI50 in the test on T47D was 17.5 µM (inactive).
Take `C[C@@]1(O)C2C3CC4C5C3C1[C@](O)(C42)[C@H]5Br` (some centres undefined): the GI50 with Hs-578T, with NCI-H460, with HCC 2998, in the test on UO-31, with NCI-H522 and with SW-620 was > 100 µM (inactive) throughout. Further, the GI50 with 786-0, in the test on OVCAR-8, in the test on OVCAR-4, with HL-60, in the test on PC-3 and in the test on UACC-62 was > 100 µM (inactive) throughout. For the same compound, the GI50 with BT-549, with TK-10, in the test on U-251, in the test with ACHN, with EKVX and in the test with SK-MEL-5 was > 100 µM (inactive) in each case. In the test with T47D, the GI50 is > 100 µM (inactive).
As for `O=C1C(Cl)C(c2cccc(Cl)c2)N1c1ccc(-n2c(S)nc3ccccc3c2=O)cc1` (centres undefined), the GI50 with Hs-578T was 20.2 µM (inactive); in the test with NCI-H460, 16.5 µM (inactive); in the test on HCC 2998, 14.4 µM (inactive); with UO-31 it was 20 µM (inactive); with NCI-H522, 15.1 µM (inactive); in the test with SW-620 it was 29.6 µM (inactive). In addition, the GI50 was 19 µM (inactive) in the test with 786-0; 37.3 µM (inactive) with OVCAR-8; 13.6 µM (inactive) with OVCAR-4; 22.1 µM (inactive) with HL-60; 27.7 µM (inactive) with PC-3; 14.8 µM (inactive) in the test on UACC-62. The GI50 in the test with BT-549 is 39.4 µM (inactive); with TK-10 it was 29.6 µM (inactive); in the test with U-251, 13.3 µM (inactive); in the test on ACHN, 18.7 µM (inactive); in the test with EKVX, 32.1 µM (inactive); with SK-MEL-5, 15.1 µM (inactive). The GI50 in the test with T47D is 31.8 µM (inactive).
On to `CC1CNc2ccccc2N=C1NN` (centres undefined), for which the GI50 in the test on Hs-578T, in the test with NCI-H460, in the test with HCC 2998, with UO-31, in the test with NCI-H522 and in the test with SW-620 was > 100 µM (inactive) each time. Besides, the GI50 with 786-0, in the test on OVCAR-8, in the test on OVCAR-4, in the test on PC-3, in the test on UACC-62 and in the test on BT-549 was > 100 µM (inactive) throughout. The GI50 in the test on TK-10, with U-251, with ACHN, in the test with EKVX, in the test with SK-MEL-5 and in the test with T47D was > 100 µM (inactive) each time.
Turning to `O=C(O)C(Br)C(Br)c1ccccc1[N+](=O)[O-]` (centres undefined), the GI50 in the test with Hs-578T was > 100 µM (inactive); in the test with NCI-H460, > 100 µM (inactive); in the test on SNB-75 it was > 100 µM (inactive); in the test with HCC 2998 it was > 100 µM (inactive); in the test on UO-31, 5.46 µM (inactive); in the test with NCI-H522, 16.3 µM (inactive). Besides, the GI50 in the test with SW-620, with 786-0, with OVCAR-8, in the test on OVCAR-4, with PC-3 and with UACC-62 was > 100 µM (inactive) in each case. In addition, the GI50 with BT-549, in the test with TK-10, in the test on U-251, in the test on ACHN, in the test on EKVX and with SK-MEL-5 was > 100 µM (inactive) throughout. The GI50 in the test on T47D was > 100 µM (inactive).
For `CC(C)OC(=O)NNc1c(Cl)cc(Cl)cc1Cl`, the GI50 in the test with Hs-578T was 58.2 µM (inactive); with NCI-H460, 63.7 µM (inactive); in the test with SNB-75, 99.5 µM (inactive); in the test on HCC 2998 it was 89.9 µM (inactive); with UO-31, 55.8 µM (inactive); with NCI-H522, 30.1 µM (inactive). Besides, the GI50 with SW-620 is > 100 µM (inactive); with 786-0 it was > 100 µM (inactive); with OVCAR-8 it was > 100 µM (inactive); in the test on HL-60 it was 68.9 µM (inactive); in the test with PC-3 it was 36.9 µM (inactive); with UACC-62 it was 56.9 µM (inactive). In addition, the GI50 was 44.4 µM (inactive) in the test with BT-549; 37.7 µM (inactive) in the test with TK-10; > 100 µM (inactive) in the test on U-251; > 100 µM (inactive) in the test with ACHN; 31.6 µM (inactive) in the test on EKVX; 22.5 µM (inactive) with SK-MEL-5. For the same compound, the GI50 in the test on T47D is 33.7 µM (inactive).
Consider `COc1cc(Nc2nc3ccccc3n3cccc23)cc(OC)c1OC`, for which the GI50 with Hs-578T is 64.4 µM (inactive); in the test on NCI-H460, > 100 µM (inactive); in the test on HCC 2998 it was > 100 µM (inactive); with UO-31, > 100 µM (inactive); in the test on NCI-H522, > 100 µM (inactive); with SW-620 it was > 100 µM (inactive). Besides, the GI50 with 786-0 was 94.8 µM (inactive); in the test with OVCAR-8 it was 20.3 µM (inactive); with HL-60 it was 47.8 µM (inactive); with PC-3, > 100 µM (inactive); with UACC-62, > 100 µM (inactive); in the test with BT-549, 68.9 µM (inactive). Further, the GI50 in the test with TK-10 is 36.3 µM (inactive); in the test with U-251 it was 47.8 µM (inactive); in the test with ACHN, > 100 µM (inactive); in the test with EKVX, > 100 µM (inactive); in the test on SK-MEL-5, > 100 µM (inactive); in the test on T47D, 0.276 µM (active).
In the case of `C=C(CO)[C@H]1CC/C(C)=C/CC/C(C)=C/C/C=C(\C)[C@H](O)C1`, the GI50 in the test on Hs-578T was 25.5 µM (inactive); in the test with NCI-H460, 22.1 µM (inactive); in the test on SNB-75 it was 31 µM (inactive); in the test with HCC 2998, 15.2 µM (inactive); in the test on UO-31 it was 30.9 µM (inactive); in the test on NCI-H522 it was 16.9 µM (inactive). Further, the GI50 with SW-620 was 20.2 µM (inactive); in the test with 786-0 it was 17.3 µM (inactive); in the test on OVCAR-8 it was 17.8 µM (inactive); in the test on OVCAR-4 it was 46.7 µM (inactive); with PC-3 it was 41.8 µM (inactive); in the test with UACC-62 it was 23 µM (inactive). Moreover, the GI50 with BT-549 is 23.1 µM (inactive); with TK-10, 20.6 µM (inactive); in the test with U-251, 19.1 µM (inactive); in the test on ACHN it was 26.3 µM (inactive); in the test on EKVX it was 33.2 µM (inactive); with SK-MEL-5 it was 18.9 µM (inactive). The GI50 in the test with T47D was 48 µM (inactive).
